Measured values taken from patent US20260317250A1, “TRIAZOLE METHANOL AS NITRIFICATION INHIBITOR FOR FERTILIZER APPLICATION” (SABIC AGRI-NUTRIENTS COMPANY, priority 2022, published 2026).

Test system: nitrification of the ammonia nitrogen (NH4—N) in the sludge
Test: Nitrification batch test in crop soil/water sludge under nitrifying conditions
Conditions: for inhibition of nitrification of ammonia nitrogen (NH4—N) in the sludge: Tables 3 and 4, in words; for nitrification process: first 8 hours; for NH4—N Conversion Rate During First 24 Hours: dosed NH4—N 50 mg/l; for NH4—N Conversion Rate During First 24 Hours / COD / NH4—N concentration / NO3—N concentration: DCD 5.8 mg/l
Description: Crop soil and water were combined to form a sludge. The freshly-acquired sludge contained a high amount of nitrate nitrogen, therefore, the sludge was pretreated to reduce the chance of denitrification during analysis. Ethylene glycol was added to the sludge and the resulting sludge was purged with nitrogen gas for 24 hours to eliminate the nitrate nitrogen. After 24 hours, the sludge was aerated to eliminate the residual chemical oxygen demand (COD) which could be present. COD refers to the amount of oxygen required to degrade all oxidizable compounds in a measured sample.
A nitrification batch test was performed under nitrifying conditions. The activity of nitrification inhibitor Formula II compound was compared to that of the nitrification inhibitor dicyandiamide (DCD). COD and NH4—N were added to the sludge with one of the Formula II compound or DCD. COD, NH4—N, and NO3—N concentrations were monitored over time (t=0, 2, 4, 6, 8, 24 and 29 hours). The COD and NH4—N removal was calculated from the analysis results. Glycol was included as a reference in the test.
The pH and oxygen content were also monitored during the tests. The pH level was kept between 7 and 8 at the beginning of the tests by adding 1N HCl or 1N NaOH. Oxygen was constantly purged into the sludge solutions throughout the test to get maximum aeration.
Table 2 includes the concentrations assessed for the five batch tests. A sample concentration of approximately 10% compared to the NH4—N concentration was employed.
Values shown in brackets are below the quantification limit and are indicative. Measurements taken at time=0 were taken 60 seconds after mixing the sludge with the indicated substance. The nitrification process was nominal for both DCD and Formula II compound during the first 8 hours, then nitrification rates increased. The NH4—N and NO3—N concentrations were tested at 29 hours to verify that the nitrification process was still ongoing.

[1] = first 24 hours, Formula II compound 7.6 mg/l
[2] = time 0 h (60 seconds after mixing), dosed COD 800 mg O2/l, NH4—N 50 mg/l, Formula II compound 7.6 mg/l
[3] = time 2 h, dosed COD 800 mg O2/l, NH4—N 50 mg/l, Formula II compound 7.6 mg/l
[4] = time 4 h, dosed COD 800 mg O2/l, NH4—N 50 mg/l, Formula II compound 7.6 mg/l
[5] = time 6 h, dosed COD 800 mg O2/l, NH4—N 50 mg/l, Formula II compound 7.6 mg/l
[6] = time 8 h, dosed COD 800 mg O2/l, NH4—N 50 mg/l, Formula II compound 7.6 mg/l
[7] = time 24 h, dosed COD 800 mg O2/l, NH4—N 50 mg/l, Formula II compound 7.6 mg/l
[8] = time 29 h, dosed COD 800 mg O2/l, NH4—N 50 mg/l, Formula II compound 7.6 mg/l

| SMILES | inhibition of nitrification of ammonia nitrogen (NH4—N) in the sludge | nitrification process (in words) | NH4—N Conversion Rate During First 24 Hours [1] [mg NH4—N/l · h] | COD [2] [mg O2/l] | NH4—N concentration [2] [mg/L] | NO3—N concentration [2] [mg/L] | COD [3] [mg O2/l] | NH4—N concentration [3] [mg/L] | NO3—N concentration [3] [mg/L] | COD [4] [mg O2/l] | NH4—N concentration [4] [mg/L] | NO3—N concentration [4] [mg/L] | COD [5] [mg O2/l] | NH4—N concentration [5] [mg/L] | NO3—N concentration [5] [mg/L] | COD [6] [mg O2/l] | NH4—N concentration [6] [mg/L] | NO3—N concentration [6] [mg/L] | COD [7] [mg O2/l] | NH4—N concentration [7] [mg/L] | further results |
| --- | --- | --- | --- | --- | --- | --- | --- | --- | --- | --- | --- | --- | --- | --- | --- | --- | --- | --- | --- | --- | --- |
| N#CNC(=N)N [DCD, dicyandiamide, reference compound] | effective at inhibiting the nitrification of the ammonia nitrogen (NH4—N) in the sludge | nominal | 1.5 | 757 | 45.9 | 8.6 | 558 | 43.0 | 5.5 | 360 | 39.4 | 8.9 | 190 | 39.7 | 7.4 | 121 | 33.2 | 7.3 | 48 | 9.9 | NO3—N concentration [7]: 39.0 mg/L; NH4—N concentration [8]: 4.0 mg/L; NO3—N concentration [8]: 47.2 mg/L |
| OCn1cncn1 [Formula II compound, (1H-1,2,4-triazole-1-yl)-methanol] | effective at inhibiting the nitrification of the ammonia nitrogen (NH4—N) in the sludge | nominal | 0.9 | 718 | 45.2 | 8.8 | 497 | 41.6 | 13.8 | 314 | 40.3 | 11.8 | 204 | 42.0 | 7.2 | 158 | 37.9 | < 2.3 | 60 | 23.8 | effectiveness at inhibiting nitrification compared with DCD (first 24 hours, in words): more effective at inhibiting nitrification during the first 24 hours; NO3—N concentration, indicative value in brackets (below the quantification limit) [6]: 1.5 mg/L; NO3—N concentration [7]: 16.2 mg/L; NH4—N concentration [8]: 22.9 mg/L; NO3—N concentration [8]: 20.4 mg/L |
